Tests used:
Assay in all cases: relative viability (nuclei count vs DMSO), 5 days (fraction); higher = more cells survive
[1] = compound: CC(C)CCN1c2nc(Nc3cc(F)c(O)c(F)c3)ncc2N(C)C(=O)C1C [BI-D1870] + C[C@]1(O)C[C@@H](c2nc(-c3ccc4ccc(-c5ccccc5)nc4c3)c3c(N)nccn32)C1 [Linsitinib] (partner 1 µM)
How it was run: (§1)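 Lung cancer cell lines, seeded in 1536-well plates, were treated the following day by pin tool with a single drug or with five library-drug doses (not always all listed) in √10 steps on top of a fixed anchor-drug dose. Cells were fixed and nuclei stained in one step after 5 days, and nuclei were counted. Relative viability is the nuclei count for treated wells divided by that for vehicle wells, reported as medians of duplicate plates.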

[2] = compound: CC(C)CCN1c2nc(Nc3cc(F)c(O)c(F)c3)ncc2N(C)C(=O)C1C [BI-D1870] + N=C(N)NC(=N)NCCc1ccccc1 [Phenformin] (partner 250 µM)
How it was run: as §1

[3] = compound: CC(C)CCN1c2nc(Nc3cc(F)c(O)c(F)c3)ncc2N(C)C(=O)C1C [BI-D1870] + COc1cccc2cc(-c3nc([C@H]4CC[C@H](C(=O)O)CC4)n4ncnc(N)c34)[nH]c12 [OSI-027] (partner 0.5 µM)
How it was run: as §1

[4] = compound: O=c1ncccn1[C@@H]1O[C@H](CO)[C@@H](O)[C@H]1O [Zebularine] + CCNC(=O)c1noc(-c2cc(C(C)C)c(O)cc2O)c1-c1ccc(CN2CCOCC2)cc1 [Luminespib] (partner 0.01 µM)
How it was run: as §1

Row | Cell Line | relative viability ([1]; first compound 0.04 µM) | relative viability ([1]; first compound 0.1265 µM) | relative viability ([1]; first compound 0.4 µM) | relative viability ([1]; first compound 1.265 µM) | relative viability ([1]; first compound 4 µM) | relative viability ([2]; first compound 0.04 µM) | relative viability ([2]; first compound 0.1265 µM) | relative viability ([2]; first compound 0.4 µM) | relative viability ([2]; first compound 1.265 µM) | relative viability ([2]; first compound 4 µM) | relative viability ([3]; first compound 0.04 µM) | relative viability ([3]; first compound 0.1265 µM) | relative viability ([3]; first compound 0.4 µM) | relative viability ([3]; first compound 1.265 µM) | relative viability ([3]; first compound 4 µM) | relative viability ([4]; first compound 1 µM) | relative viability ([4]; first compound 3.162 µM) | relative viability ([4]; first compound 10 µM) | relative viability ([4]; first compound 31.62 µM) | relative viability ([4]; first compound 100 µM)
1 | NCI-H650 | 1.12 | 0.733 | 0.905 | 0.704 | 0.855 | 0.444 | 0.446 | 0.432 | 0.38 | 0.322 | 0.538 | 0.427 | 0.509 | 0.471 | 0.446 | 0.776 | 0.742 | 0.595 | 0.355 | 0.224
2 | NCI-H661 | 0.515 | 0.485 | 0.489 | 0.535 | 0.593 | 0.27 | 0.28 | 0.281 | 0.289 | 0.269 | 0.765 | 0.622 | 0.652 | 0.706 | 0.467 | 1.02 | 0.948 | 0.686 | 1.01 | 0.895
3 | NCI-H1793 | 0.824 | 0.578 | 0.794 | 0.84 | 0.932 | 0.387 | 0.311 | 0.389 | 0.423 | 0.27 | 0.293 | 0.216 | 0.22 | 0.266 | 0.224 | 0.196 | 0.197 |  | 0.203 | 0.142
4 | NCI-H1734 | 0.967 | 0.816 | 0.875 | 0.935 | 0.788 | 0.402 | 0.379 | 0.412 | 0.43 | 0.376 | 0.569 | 0.541 | 0.567 | 0.629 | 0.472 | 0.197 | 0.171 | 0.185 | 0.217 | 0.178
5 | LXF-289 | 1.05 | 0.91 | 0.943 | 0.947 | 0.916 | 0.561 | 0.493 | 0.491 | 0.529 | 0.451 | 0.796 | 0.74 | 0.746 | 0.807 | 0.776 | 0.729 | 0.75 | 0.444 | 0.382 | 0.202
6 | H3255 | 0.94 | 0.959 | 0.935 | 1.1 | 0.907 | 0.408 | 0.323 | 0.334 | 0.356 | 0.367 | 0.627 | 0.51 | 0.548 | 0.682 | 0.539 | 1.04 | 0.816 | 0.797 | 0.972 | 0.909
7 | 201T | 1.05 | 1.09 | 1.06 | 1.04 | 1.07 | 0.457 | 0.47 | 0.421 | 0.487 | 0.428 | 0.742 | 0.826 | 0.702 | 0.801 | 0.683 | 1.09 | 1.1 | 0.894 | 1.04 | 0.724

— the supplement of paper PMC10307832
